Consider 19 compounds from patent publication US5621133A (priority 1995, dated 1997).

By pKi is commonly meant −log10 of the Ki, conventionally taken in molar units. What is called pEC50 is the EC50 on a negative log10 scale, so that one unit is a factor of ten.

Assay [1] deals with dopamine D-1 receptor (Rattus norvegicus, UniProt P18901). The experiment in a line: biochemical. The note with it: D-1 Ki, rat caudate, [125I]SCH-23982.
From the text: The compounds compete with the radiolabeled ligand for occupancy of the receptors and the molar potency of each compound was quantified.
The Ki values are inversely proportional to the affinity of the compound for the receptor.
In assay [2] the test system is striatal dopamine receptors. As to the kind of experiment: Rotation behavior assay of in vivo activity (6-hydroxydopamine lesioned rat rotational model). The note with it: for ED50 s.c. (rotation behavior): injected subcutaneously.
Assay [3] relates to dopamine D-1 receptor. The note with it: for Intrinsic Activity (adenylate cyclase assay): dopamine = 100, goldfish retina or rat striatum; for pEC50: read-out: EC50 (agonist activity in adenylate cyclase assay), tissue from goldfish retina or rat striatum.
Method: In order to determine agonist activity, cell-free tissue homogenates are incubated in an ionic buffer solution containing ATP and the compound being evaluated. The tissue was obtained from either goldfish retina or rat striatum.
For another assay, the target named is dopamine D-2 receptor (Rattus norvegicus, UniProt P61169). As to the kind of experiment: biochemical. The class given is binding. The note with it: rat caudate, [125I]-p-aminophenylethyl spiroperidol; read-out: D-2 Ki. On the procedure:
Homogenized rat caudate was the source of the D-2 receptors. […] The molar affinity of the compound for the receptor binding site was calculated by the same method used for the D-1 receptor assay, assuming a competitive interaction between the compound and the radiolabeled ligand.

pEC50, pKi: −log10 of the molar value. Where a name gives a salt, the structure may show the parent alone. Read-outs that look alike come from different tables or passages of the source. A value given as a limit tells only on which side of the number the result lay.

Sequence of dopamine D-2 receptor (P61169 whole entry): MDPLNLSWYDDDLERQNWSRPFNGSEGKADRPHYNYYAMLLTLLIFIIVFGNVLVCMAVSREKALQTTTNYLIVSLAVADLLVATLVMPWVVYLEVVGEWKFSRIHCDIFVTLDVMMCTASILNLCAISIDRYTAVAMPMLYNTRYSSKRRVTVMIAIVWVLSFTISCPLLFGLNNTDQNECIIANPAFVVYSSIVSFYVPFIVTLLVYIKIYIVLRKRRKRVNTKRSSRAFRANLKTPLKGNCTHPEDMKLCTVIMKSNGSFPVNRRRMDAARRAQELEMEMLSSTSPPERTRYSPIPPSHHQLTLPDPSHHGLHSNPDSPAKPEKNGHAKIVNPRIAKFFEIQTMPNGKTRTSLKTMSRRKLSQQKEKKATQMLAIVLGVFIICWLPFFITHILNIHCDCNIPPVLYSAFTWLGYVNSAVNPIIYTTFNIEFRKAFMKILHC
Sequence of dopamine D-1 receptor (Rattus norvegicus, UniProt P18901) (P18901 whole entry): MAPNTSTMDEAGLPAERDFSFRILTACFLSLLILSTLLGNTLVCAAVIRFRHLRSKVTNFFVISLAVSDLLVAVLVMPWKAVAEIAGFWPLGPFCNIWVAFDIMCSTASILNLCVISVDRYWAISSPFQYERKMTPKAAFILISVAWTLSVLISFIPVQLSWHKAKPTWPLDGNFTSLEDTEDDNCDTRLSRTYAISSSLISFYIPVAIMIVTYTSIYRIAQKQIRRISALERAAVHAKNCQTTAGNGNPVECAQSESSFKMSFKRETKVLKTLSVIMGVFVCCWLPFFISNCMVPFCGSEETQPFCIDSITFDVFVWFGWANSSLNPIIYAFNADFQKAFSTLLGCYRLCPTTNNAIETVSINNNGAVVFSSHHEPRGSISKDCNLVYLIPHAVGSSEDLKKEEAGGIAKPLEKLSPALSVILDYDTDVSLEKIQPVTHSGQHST

For the compound `CC(C)(C)C[C@H]1Cc2c(ccc(O)c2O)[C@@H](CN)O1` (relative stereo) [Example 104], the pKi on dopamine D-1 receptor [1] was 7.43. Moreover, in assay [2], the “ED50 s.c. (rotation behavior)” value is on record as 0.13 µmol/kg and the “ED50 oral (rotation behavior)” value is 5 µmol/kg. In the assay on dopamine D-1 receptor [3], the “Intrinsic Activity (adenylate cyclase assay)” value (from here on “Intrinsic Activity”) is given as 110 and the pEC50 was 7.27. In addition, the negative-log Ki (pKi) on dopamine D-2 receptor is below 5.00.
As to `CN(C)C[C@@H]1O[C@H](c2ccccc2)Cc2c1ccc(O)c2O` (relative stereo) [Example 227], the pKi at dopamine D-1 receptor [1] is 7.70; at dopamine D-2 receptor, below 5.00. Moreover, the “ED50 s.c. (rotation behavior)” value in assay [2] is on record as 0.045 µmol/kg. Further, the “Intrinsic Activity” value with dopamine D-1 receptor [3] turned out to be 94. Also, the pEC50 at dopamine D-1 receptor [3] was 6.43.
`CNC[C@H]1O[C@@H](CC(C)(C)C)Cc2c1ccc(O)c2O` (relative stereo) [Example 146] had a pKi on dopamine D-1 receptor [1] of 7.31. Further, in assay [2], the “ED50 s.c. (rotation behavior)” value is recorded as 0.12 µmol/kg and the “ED50 oral (rotation behavior)” value stood at 7 µmol/kg. Besides, in the assay on dopamine D-1 receptor [3], the “Intrinsic Activity” value came out at 82 and the negative logarithm of the EC50 (pEC50) was 6.92. Further, on dopamine D-2 receptor, the pKi was 5.85.
`Oc1ccc2c(c1O)CC1(CCCCCC1)C1=C2CNCC1` [Example 199, Spiro[cycloheptane-1,5'-(1',2',3',4',5',6'-hexahydrobenzo[h]isoquinoline)]-7',8'-diol Hydrobromide] had a pKi on dopamine D-1 receptor [1] of 7.27. Besides, in assay [2], the “ED50 s.c. (rotation behavior)” value came to 1.5 µmol/kg and the “ED50 oral (rotation behavior)” value is on record as 31 µmol/kg. Further, in the assay with dopamine D-1 receptor [3] (Hydrobromide), the “Intrinsic Activity” value worked out at 83 and the pEC50 was 7.48. The pKi at dopamine D-2 receptor is 5.85.
At dopamine D-1 receptor [1], `NCC1OC(CC2CCCC2)Cc2c1ccc(O)c2O` (stereo not shown) [Example 215] showed a negative-log Ki (pKi) of 7.70. Besides, in assay [2], the “ED50 s.c. (rotation behavior)” value came out at 0.55 µmol/kg. Also, in the assay with dopamine D-1 receptor [3], the “Intrinsic Activity” value stood at 114 and the pEC50 is 7.70. Moreover, on dopamine D-2 receptor, the pKi is 6.10.
`C=CC(C)[C@H]1Cc2c(ccc(O)c2O)[C@@H](CN)O1` (relative stereo) [Example 105] had a negative logarithm of the Ki (pKi) on dopamine D-1 receptor [1] of 7.77. In assay [2], the “ED50 s.c. (rotation behavior)” value is reported as 0.17 µmol/kg. Further, in the assay with dopamine D-1 receptor [3], the “Intrinsic Activity” value came to 110 and the pEC50 is 8.05. The pKi on dopamine D-2 receptor is 6.00.
The compound `Br.CN1CCC2=C(C1)c1ccc(O)c(O)c1CC2c1ccccc1` (stereo not shown) [Example 210, 2-Methyl-5-phenyl-1,2,3,4,5,6-hexahydrobenzo[h]isoquinoline-7,8-diol Hydrobromide] showed a pKi on dopamine D-1 receptor [1] of 7.33. Besides, in assay [2], the “ED50 s.c. (rotation behavior)” value came to 0.005 µmol/kg and the “ED50 oral (rotation behavior)” value is on record as 1.6 µmol/kg. Also, the “Intrinsic Activity” value in the assay with dopamine D-1 receptor [3] was found to be 98. Besides, the pEC50 on dopamine D-1 receptor [3] (Hydrobromide) is 7.28. The pKi at dopamine D-2 receptor was 5.89.
`CC1([C@@H]2Cc3c(ccc(O)c3O)[C@H](CN)O2)CCCCC1` (relative stereo) [Example 222] showed a pKi on dopamine D-1 receptor [1] of 8.00. Also, in assay [2], the “ED50 s.c. (rotation behavior)” value is listed as 0.3 µmol/kg. Besides, in the assay with dopamine D-1 receptor [3], the “Intrinsic Activity” value is recorded as 87 and the pEC50 is 7.40. In addition, the pKi on dopamine D-2 receptor is 5.49.
For the compound `CC[C@H]1Cc2c(ccc(O)c2O)[C@@H](CN)O1` (relative stereo) [Example 51], the pKi on dopamine D-1 receptor [1] is 6.63; at dopamine D-2 receptor, 5.41. Further, the “ED50 s.c. (rotation behavior)” value in assay [2] turned out to be 7 µmol/kg. For the same compound, the “Intrinsic Activity” value in the assay on dopamine D-1 receptor [3] amounted to 88. On dopamine D-1 receptor [3], the pEC50 is 6.74.
For the compound `CC(C)C[C@@H]1Cc2c(ccc(O)c2O)[C@H](CN)O1` (relative stereo) [Example 89], on dopamine D-1 receptor [1], the pKi was 7.68. In addition, in assay [2], the “ED50 s.c. (rotation behavior)” value is listed as 0.12 µmol/kg and the “ED50 oral (rotation behavior)” value is 7 µmol/kg. Further, in the assay on dopamine D-1 receptor [3], the “Intrinsic Activity” value came to 130 and the pEC50 was 8.15. In addition, the pKi on dopamine D-2 receptor is 5.85.
For `CN(C)C[C@@H]1O[C@H](C(C)(C)C)Cc2c1ccc(O)c2O` [Example 147], the pKi on dopamine D-1 receptor [1] was 6.40. For the same compound, in assay [2], the “ED50 s.c. (rotation behavior)” value was found to be 0.05 µmol/kg. For the same compound, in the assay with dopamine D-1 receptor [3], the “Intrinsic Activity” value came to 89 and the pEC50 was 7.18. The pKi on dopamine D-2 receptor was below 5.00.
The matching figures for `NC[C@@H]1O[C@H](C2(c3ccccc3)CCCCC2)Cc2c1ccc(O)c2O` (relative stereo) [Example 223]: 7.40, above 3 µmol/kg, 52, 7.15 and 5.57.
As for `CN1CCC2=C(C1)c1ccc(O)c(O)c1CC21CCCCCC1` [Example 249], the pKi on dopamine D-1 receptor [1] is 7.30; at dopamine D-2 receptor, 6.22. In assay [2], the “ED50 s.c. (rotation behavior)” value amounted to 0.12 µmol/kg. In the assay on dopamine D-1 receptor [3], the “Intrinsic Activity” value is given as 32. Further, the pEC50 on dopamine D-1 receptor [3] is 6.70.
On to `CC(C)(C)CC1Cc2c(ccc(O)c2O)C(CN)O1.Cl` (stereo not shown) [Example 214, 1-Aminomethyl-3-(2,2-dimethylpropyl)-3,4-dihydro-5,6-dihydroxy-1H-2-benzopyran Hydrochloride], for which the pKi at dopamine D-1 receptor [1] is 7.70. For the same compound, the “ED50 s.c. (rotation behavior)” value in assay [2] turned out to be 0.085 µmol/kg. Besides, in the assay on dopamine D-1 receptor [3], the “Intrinsic Activity” value is on record as 106 and the pEC50 is 7.70. The pKi on dopamine D-2 receptor is 5.28.
The compound `CN(C)C[C@@H]1O[C@H](C23CC4CC(CC(C4)C2)C3)Cc2c1ccc(O)c2O` [Example 148] gave a pKi at dopamine D-1 receptor [1] of 7.19. Besides, in assay [2], the “ED50 s.c. (rotation behavior)” value stood at 0.12 µmol/kg and the “ED50 oral (rotation behavior)” value was found to be 11 µmol/kg. Besides, in the assay with dopamine D-1 receptor [3], the “Intrinsic Activity” value is listed as 79 and the pEC50 was 7.66. At dopamine D-2 receptor, the pKi was 5.34.
Turning to `CNC[C@@H]1O[C@H](C(C)(C)C)Cc2c1ccc(O)c2O.Cl` [Example 112, [1R,3S]3-t-butyl-5,6-dihydroxy-1-methylaminomethyl-3,4-dihydro-1H-2-benzopyran hydrochloride], the pKi at dopamine D-1 receptor [1] is 7.42. For the same compound, in assay [2], the “ED50 s.c. (rotation behavior)” value was found to be 0.10 µmol/kg and the “ED50 oral (rotation behavior)” value amounted to 1.0 µmol/kg. In addition, in the assay on dopamine D-1 receptor [3], the “Intrinsic Activity” value was 124 and the pEC50 is 8.10. Further, the pKi on dopamine D-2 receptor was 5.82.
On dopamine D-1 receptor [1], `CN(C)CC1OC(CC(C)(C)C)Cc2c1ccc(O)c2O` (stereo not shown) [Example 220] showed a pKi of 6.39. For the same compound, the “ED50 s.c. (rotation behavior)” value in assay [2] turned out to be 0.52 µmol/kg. Further, in the assay with dopamine D-1 receptor [3], the “Intrinsic Activity” value worked out at 72 and the pEC50 is 6.40. The pKi on dopamine D-2 receptor is 5.51.
With `C=CCNC[C@H]1O[C@@H](c2ccccc2)Cc2c1ccc(O)c2O` (stereo in doubt) [Example 126], at dopamine D-1 receptor [1], the pKi is 6.80. In assay [2], the “ED50 s.c. (rotation behavior)” value came to 0.16 µmol/kg and the “ED50 oral (rotation behavior)” value was 28 µmol/kg. Further, in the assay on dopamine D-1 receptor [3], the “Intrinsic Activity” value came to 94 and the pEC50 is 7.34. Further, the pKi at dopamine D-2 receptor is 5.18.
Turning to `Oc1ccc2c(c1O)CC1(CCCCCCCC1)C1=C2CNCC1` [Example 241], the pKi at dopamine D-1 receptor [1] was 6.40. Besides, the “ED50 s.c. (rotation behavior)” value in assay [2] is given as above 3 µmol/kg. Besides, in the assay with dopamine D-1 receptor [3], the “Intrinsic Activity” value was 48 and the pEC50 was 6.40. Moreover, the pKi at dopamine D-2 receptor was 5.54.
